Source: the NIST ThermoML archive (doi:10.1016/j.jct.2008.12.010)

Assay: xn = mol fraction of the nth substance listed
Conditions: for speed of sound / mass density: Liquid; for speed of sound: Linear variable-path acoustic interferometer; for mass density: Vibrating tube method; for surface tension liquid-gas: Drop volume

CCOC(=O)OCC [diethyl carbonate] + Cc1ccc(C)cc1
Conditions | mass density [kg/m3] | speed of sound [m/s] | surface tension liquid-gas [mN/m]
288.15 K, x1 = 0.0509 | 871.12 | 1343.5 | –
288.15 K, x1 = 0.0985 | 876.57 | 1336.8 | –
288.15 K, x1 = 0.1975 | 887.94 | 1322.8 | –
288.15 K, x1 = 0.2974 | 899.4 | 1308.7 | –
288.15 K, x1 = 0.3983 | 910.97 | 1294.6 | –
288.15 K, x1 = 0.5023 | 922.91 | 1280.2 | –
288.15 K, x1 = 0.5485 | 928.22 | 1274 | –
288.15 K, x1 = 0.5968 | 933.78 | 1267.5 | –
288.15 K, x1 = 0.6464 | 939.5 | 1261 | –
288.15 K, x1 = 0.6992 | 945.6 | 1254.2 | –
288.15 K, x1 = 0.7976 | 956.98 | 1241.8 | –
288.15 K, x1 = 0.8515 | 963.21 | 1235.1 | –
288.15 K, x1 = 0.9 | 968.83 | 1229.4 | –
288.15 K, x1 = 0.9507 | 974.69 | 1223.5 | –
293.15 K, x1 = 0.04951 | 866.58 | 1322.7 | –
293.15 K, x1 = 0.09841 | 872.13 | 1315.9 | –
293.15 K, x1 = 0.2007 | 883.74 | 1301.6 | –
293.15 K, x1 = 0.3004 | 895.04 | 1287.6 | –
293.15 K, x1 = 0.4017 | 906.52 | 1273.5 | –
293.15 K, x1 = 0.4997 | 917.64 | 1260 | –
293.15 K, x1 = 0.5976 | 928.79 | 1246.8 | –
293.15 K, x1 = 0.65 | 934.76 | 1239.9 | –
293.15 K, x1 = 0.6999 | 940.46 | 1233.4 | –
293.15 K, x1 = 0.7969 | 951.55 | 1221.2 | –
293.15 K, x1 = 0.8522 | 957.87 | 1214.5 | –
293.15 K, x1 = 0.9516 | 969.28 | 1203.1 | –
298.15 K, x1 = 0.05081 | – | 1301.4 | –
298.15 K, x1 = 0.05201 | – | – | 27.27
298.15 K, x1 = 0.09983 | – | – | 27.12
298.15 K, x1 = 0.1564 | – | 1286.7 | –
298.15 K, x1 = 0.2023 | – | – | 26.85
298.15 K, x1 = 0.2581 | – | 1272.5 | –
298.15 K, x1 = 0.3052 | – | 1265.9 | –
298.15 K, x1 = 0.3063 | – | – | 26.61
298.15 K, x1 = 0.4021 | – | 1252.4 | –
298.15 K, x1 = 0.4043 | – | – | 26.39
298.15 K, x1 = 0.4446 | – | – | 26.31
298.15 K, x1 = 0.5042 | – | – | 26.19
298.15 K, x1 = 0.5936 | – | – | 26.01
298.15 K, x1 = 0.7041 | – | – | 25.8
298.15 K, x1 = 0.7994 | – | – | 25.65
298.15 K, x1 = 0.8968 | – | – | 25.52
